# Laboratory results published in US11786492B2, “Therapeutic agent for phosphodiesterase inhibition and its related disorders” (Novalead Pharma Inc, priority 2017, dated 2023).
# Key:
# IL-6 = IL-6 release from stimulated HaCaT cells, ELISA; format: cell-based, human; details: IFN-γ 50 ng/mL, 48 hrs
# Procedure: (§1) HaCaT cells were maintained in T-75 cm2 flask in Dulbecco's modified Eagle medium supplemented with FBS (10%), L-glutamine (2 mM), penicillin (100 ug/ml), streptomycin (100 ug/ml) at 37° C. in 5% CO2 incubator. Cell growth was maintained to 70-80% confluence for seeding and vehicle used was 1% DMSO. The cell viability was checked at various time points using Alamar blue and fluorescence readings were taken at excitation of 544 nm and emission of 590 nm.
# (§2) HaCaT cells were stimulated with different stimulators as follows: • a. Cells were exposed to stimulator LPS at 1 μg/mL for 48 hrs to stimulate IL-1β • b. Cells were exposed to stimulator IFN-γ at 50 ng/mL for 48 hrs to stimulate TNF-α, IL-6
# (§3) After 48 hrs supernatants were collected and centrifuged to remove any cell debris and aliquots were used for ELISA.
# Human IL-6 = test: IL-6 release from stimulated PBMCs, ELISA; format: cell-based; details: LPS 100 ng/mL, 18 hrs
# Procedure: (§4) Fresh human blood from healthy volunteer was collected in anticoagulant (5 mM) ethylene diamine tetra acetic acid (EDTA) containing tubes. The growth medium used was RPMI-1640 medium (with 3% FBS) and incubated at 37° C. for 60 mins in a 5% CO2 incubator with vehicle used as 1% DMSO. The cell viability was checked at various time points using Alamar blue and fluorescence readings were taken at excitation of 544 nm and emission of 590 nm.
# (§5) PBMCs were stimulated with different stimulators as follows: • a. Cells were exposed to stimulator LPS at 100 ng/mL for 18 hrs to stimulate TNF-α, IL-6, IFN-γ, IL10, IL-1β • b. Cells were exposed to stimulator IFN-γ+LPS at 100 ng/mL+1 μg/mL for 18 hrs to stimulate IL-12 • c. Cells were exposed to stimulator PMA+Ionomycin at 50 ng/mL+1 μg/mL for 18 hrs to stimulate IL-23, IL-22, IL-17A, IL-17F
# (§6) After 18 hrs supernatants were collected and centrifuged to remove any cell debris and aliquots were used for ELISA.
# Human IL-22 = test: IL-22 release from stimulated PBMCs, ELISA; format: cell-based; details: PMA+Ionomycin, 18 hrs
# Procedure: as §4, §5, §6
# Human TNF-α = test: TNF-α release from stimulated PBMCs, ELISA; format: cell-based; details: LPS 100 ng/mL, 18 hrs
# Procedure: as §4, §5, §6
# PDE4B = PDE4B (Homo sapiens, UniProt Q07343); test: Fluorescence polarization assay PDE4B; format: biochemical; details: substrate cAMP
# Chain of PDE4B (Q07343 whole entry, species assumed): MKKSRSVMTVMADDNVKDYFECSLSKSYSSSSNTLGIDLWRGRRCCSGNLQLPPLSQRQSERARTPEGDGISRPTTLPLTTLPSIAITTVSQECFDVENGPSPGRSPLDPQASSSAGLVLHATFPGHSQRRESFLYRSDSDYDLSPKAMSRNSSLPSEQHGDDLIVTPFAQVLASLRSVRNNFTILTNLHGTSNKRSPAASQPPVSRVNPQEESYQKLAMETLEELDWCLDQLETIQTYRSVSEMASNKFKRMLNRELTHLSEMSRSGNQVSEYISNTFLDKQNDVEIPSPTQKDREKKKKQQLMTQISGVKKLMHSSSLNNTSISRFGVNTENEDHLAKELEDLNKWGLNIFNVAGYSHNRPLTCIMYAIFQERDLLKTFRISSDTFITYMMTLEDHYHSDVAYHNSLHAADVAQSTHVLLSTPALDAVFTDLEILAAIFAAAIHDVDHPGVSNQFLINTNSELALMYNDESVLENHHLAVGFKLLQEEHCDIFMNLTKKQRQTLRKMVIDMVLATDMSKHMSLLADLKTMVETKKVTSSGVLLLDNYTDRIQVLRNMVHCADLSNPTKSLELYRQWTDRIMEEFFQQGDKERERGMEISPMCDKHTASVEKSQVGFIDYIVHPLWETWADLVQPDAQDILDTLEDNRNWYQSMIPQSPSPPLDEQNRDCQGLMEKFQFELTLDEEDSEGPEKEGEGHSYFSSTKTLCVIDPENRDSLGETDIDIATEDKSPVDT
# Procedure: (§7) An experiment to check inhibition of various subtypes of the target Phosphodiesterase (PDE) enzyme in in-vitro assay was performed. […] PDE1A, PDE2A, PDE4A, PDE4B, PDE4C, PDE4D, PDE5A, PDE7A, PDE9A, PDE10A.
# Human IL-1β = test: IL-1β release from stimulated PBMCs, ELISA; format: cell-based; details: LPS 100 ng/mL, 18 hrs
# Procedure: as §4, §5, §6
# Human IL-12 = test: IL-12 release from stimulated PBMCs, ELISA; format: cell-based; details: IFN-γ+LPS, 18 hrs
# Procedure: as §4, §5, §6
# Human IL-17F = test: IL-17F release from stimulated PBMCs, ELISA; format: cell-based; details: PMA+Ionomycin, 18 hrs
# Procedure: as §4, §5, §6
# PDE1A = PDE1A (Homo sapiens, UniProt P54750); test: Fluorescence polarization assay PDE1A; format: biochemical; details: substrate cGMP, Ca-CaM
# Chain of PDE1A (P54750 whole entry, species assumed): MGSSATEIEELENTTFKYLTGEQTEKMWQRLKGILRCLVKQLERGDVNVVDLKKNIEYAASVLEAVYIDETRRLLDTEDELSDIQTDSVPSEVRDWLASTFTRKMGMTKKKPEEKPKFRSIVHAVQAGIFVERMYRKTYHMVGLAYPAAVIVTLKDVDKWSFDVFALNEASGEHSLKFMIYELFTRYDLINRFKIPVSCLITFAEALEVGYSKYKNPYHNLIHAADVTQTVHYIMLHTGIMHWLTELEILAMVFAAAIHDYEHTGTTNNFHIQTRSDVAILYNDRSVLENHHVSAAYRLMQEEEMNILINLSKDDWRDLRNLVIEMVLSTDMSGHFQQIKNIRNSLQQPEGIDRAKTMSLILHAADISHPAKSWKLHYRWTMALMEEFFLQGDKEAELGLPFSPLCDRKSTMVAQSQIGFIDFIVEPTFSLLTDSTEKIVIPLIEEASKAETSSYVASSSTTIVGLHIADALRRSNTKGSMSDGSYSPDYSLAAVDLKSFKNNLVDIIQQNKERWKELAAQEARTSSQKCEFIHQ
# Procedure: as §7
# PDE2A = PDE2A (Homo sapiens, UniProt O00408); test: Fluorescence polarization assay PDE2A; format: biochemical; details: substrate cGMP
# Chain of PDE2A (O00408 whole entry, species assumed): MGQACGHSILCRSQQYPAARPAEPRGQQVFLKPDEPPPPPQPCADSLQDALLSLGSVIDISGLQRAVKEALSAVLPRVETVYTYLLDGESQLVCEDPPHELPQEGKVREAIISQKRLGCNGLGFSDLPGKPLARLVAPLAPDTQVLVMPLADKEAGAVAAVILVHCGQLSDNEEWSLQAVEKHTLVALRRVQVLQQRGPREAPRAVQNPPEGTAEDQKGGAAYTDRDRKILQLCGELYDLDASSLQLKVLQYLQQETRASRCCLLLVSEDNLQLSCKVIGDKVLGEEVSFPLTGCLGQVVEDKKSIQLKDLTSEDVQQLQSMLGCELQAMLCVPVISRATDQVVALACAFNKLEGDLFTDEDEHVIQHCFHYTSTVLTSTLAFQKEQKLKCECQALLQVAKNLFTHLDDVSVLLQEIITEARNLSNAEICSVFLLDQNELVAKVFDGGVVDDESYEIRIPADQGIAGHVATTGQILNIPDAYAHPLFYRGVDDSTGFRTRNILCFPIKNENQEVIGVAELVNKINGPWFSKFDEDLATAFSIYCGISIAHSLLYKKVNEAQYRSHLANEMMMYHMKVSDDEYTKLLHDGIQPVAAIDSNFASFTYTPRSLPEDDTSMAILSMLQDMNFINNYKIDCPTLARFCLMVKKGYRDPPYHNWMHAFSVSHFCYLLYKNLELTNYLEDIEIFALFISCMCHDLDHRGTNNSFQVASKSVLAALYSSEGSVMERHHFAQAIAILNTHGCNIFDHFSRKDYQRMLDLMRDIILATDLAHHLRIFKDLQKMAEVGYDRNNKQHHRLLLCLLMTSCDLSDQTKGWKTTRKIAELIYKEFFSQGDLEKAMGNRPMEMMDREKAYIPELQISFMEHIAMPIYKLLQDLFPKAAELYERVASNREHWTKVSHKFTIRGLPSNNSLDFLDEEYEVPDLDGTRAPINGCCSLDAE
# Procedure: as §7
# Human IFN-γ = test: IFN-γ release from stimulated PBMCs, ELISA; format: cell-based; details: LPS 100 ng/mL, 18 hrs
# Procedure: as §4, §5, §6
# TNF-α = TNF-α release from stimulated HaCaT cells, ELISA; format: cell-based, human; details: IFN-γ 50 ng/mL, 48 hrs
# Procedure: as §1, §2, §3
# Human IL-17A = test: IL-17A release from stimulated PBMCs, ELISA; format: cell-based; details: PMA+Ionomycin, 18 hrs
# Procedure: as §4, §5, §6
# HaCaT cells = test: Keratinocyte (HaCaT) proliferation, MTT assay; format: cell-based, human
# Procedure: An experiment to check keratinocyte proliferation inhibitory activity of selected compounds of Formula-I was performed to establish its application in skin disorders related to keratinocyte hyper-proliferation. HaCaT cells, a human immortalized cell line derived from keratinocytes, representing hyper-proliferating keratinocytes was investigated for anti-proliferative potential of the selected compounds by MTT assay.
structure (smiles),measurement,setting,value
CC(=O)Oc1ccccc1C(=O)Nc1ncc([N+](=O)[O-])s1 [Nitazoxanide],IL-6 Conc.,IL-6; 0.1 μM,83 ± 1 pg/mL
same,IL-6 Conc.,IL-6; 0.5 μM,79 ± 4 pg/mL
same,IL-6 Conc.,IL-6; 1 μM,70 ± 4 pg/mL
same,Human IL-6 concentration,Human IL-6; 1 μM,5520 pg/mL
same,Human IL-6 concentration,Human IL-6; 10 μM,5342 pg/mL
same,Human IL-6 concentration,Human IL-6; 25 μM,3567 pg/mL
same,Human IL-6 concentration,Human IL-6; 50 μM,2531 pg/mL
same,Human IL-22 concentration,Human IL-22; 1 μM,5612 pg/mL
same,Human IL-22 concentration,Human IL-22; 10 μM,1093 pg/mL
same,Human IL-22 concentration,Human IL-22; 25 μM,228 pg/mL
same,Human IL-22 concentration,Human IL-22; 50 μM,0 pg/mL
same,Human TNF-α concentration,Human TNF-α; 1 μM,5708 pg/mL
same,Human TNF-α concentration,Human TNF-α; 10 μM,3472 pg/mL
same,Human TNF-α concentration,Human TNF-α; 25 μM,3679 pg/mL
same,Human TNF-α concentration,Human TNF-α; 50 μM,2896 pg/mL
same,IC50,PDE4B,> 500 µM
same,Human IL-1β concentration,Human IL-1β; 1 μM,4470 pg/mL
same,Human IL-1β concentration,Human IL-1β; 10 μM,3971 pg/mL
same,Human IL-1β concentration,Human IL-1β; 25 μM,3203 pg/mL
same,Human IL-1β concentration,Human IL-1β; 50 μM,2506 pg/mL
same,Human IL-12 concentration,Human IL-12; 1 μM,3892 pg/mL
same,Human IL-12 concentration,Human IL-12; 10 μM,1500 pg/mL
same,Human IL-12 concentration,Human IL-12; 25 μM,406 pg/mL
same,Human IL-12 concentration,Human IL-12; 50 μM,101 pg/mL
same,Human IL-17F concentration,Human IL-17F; 1 μM,166 pg/mL
same,Human IL-17F concentration,Human IL-17F; 10 μM,0 pg/mL
same,Human IL-17F concentration,Human IL-17F; 25 μM,0 pg/mL
same,Human IL-17F concentration,Human IL-17F; 50 μM,0 pg/mL
same,IC50,PDE1A,137 µM
same,IC50,PDE2A,67.5 µM
same,Human IFN-γ concentration,Human IFN-γ; 1 μM,217 pg/mL
same,Human IFN-γ concentration,Human IFN-γ; 25 μM,152 pg/mL
same,Human IFN-γ concentration,Human IFN-γ; 50 μM,191 pg/mL
same,TNF-α Conc.,TNF-α; 0.1 μM,3 ± 0.2 pg/mL
same,TNF-α Conc.,TNF-α; 0.5 μM,2.5 ± 0.5 pg/mL
same,TNF-α Conc.,TNF-α; 1 μM,2.3 ± 0.4 pg/mL
same,Human IL-17A concentration,Human IL-17A; 1 μM,39 pg/mL
same,Human IL-17A concentration,Human IL-17A; 10 μM,0 pg/mL
same,Human IL-17A concentration,Human IL-17A; 25 μM,0 pg/mL
same,Human IL-17A concentration,Human IL-17A; 50 μM,0 pg/mL
same,Cell proliferation (% of Control),"HaCaT cells; 0.01 μM, 24 h",126.3 % of Control
same,Cell proliferation (% of Control),"HaCaT cells; 0.01 μM, 48 h",113.7 % of Control
same,Cell proliferation (% of Control),"HaCaT cells; 0.01 μM, 72 h",114.6 % of Control
same,Cell proliferation (% of Control),"HaCaT cells; 0.1 μM, 24 h",114.3 % of Control
same,Cell proliferation (% of Control),"HaCaT cells; 0.1 μM, 48 h",115.2 % of Control
same,Cell proliferation (% of Control),"HaCaT cells; 0.1 μM, 72 h",102.4 % of Control
same,Cell proliferation (% of Control),"HaCaT cells; 0.5 μM, 24 h",120.3 % of Control
same,Cell proliferation (% of Control),"HaCaT cells; 0.5 μM, 48 h",113.4 % of Control
same,Cell proliferation (% of Control),"HaCaT cells; 0.5 μM, 72 h",106.2 % of Control
same,Cell proliferation (% of Control),"HaCaT cells; 1 μM, 24 h",123 % of Control
same,Cell proliferation (% of Control),"HaCaT cells; 1 μM, 48 h",110.8 % of Control
same,Cell proliferation (% of Control),"HaCaT cells; 1 μM, 72 h",101.7 % of Control
same,Cell proliferation (% of Control),"HaCaT cells; 5 μM, 24 h",121.6 % of Control
same,Cell proliferation (% of Control),"HaCaT cells; 5 μM, 48 h",91.8 % of Control
same,Cell proliferation (% of Control),"HaCaT cells; 5 μM, 72 h",82.9 % of Control
same,Cell proliferation (% of Control),"HaCaT cells; 10 μM, 24 h",103.8 % of Control
same,Cell proliferation (% of Control),"HaCaT cells; 10 μM, 48 h",77 % of Control
same,Cell proliferation (% of Control),"HaCaT cells; 10 μM, 72 h",69.5 % of Control
same,Cell proliferation (% of Control),"HaCaT cells; 50 μM, 24 h",92.6 % of Control
same,Cell proliferation (% of Control),"HaCaT cells; 50 μM, 48 h",69.6 % of Control
same,Cell proliferation (% of Control),"HaCaT cells; 50 μM, 72 h",49.6 % of Control
same,Cell proliferation (% of Control),"HaCaT cells; 100 μM, 24 h",89.7 % of Control
same,Cell proliferation (% of Control),"HaCaT cells; 100 μM, 48 h",61 % of Control
same,Cell proliferation (% of Control),"HaCaT cells; 100 μM, 72 h",33.1 % of Control
same,IC50,"HaCaT cells; Homo sapiens, HaCaT, 72 h, read-out: IC50 of cell proliferation",39.9 µM
